Measured values reported in patent US9232792B2, “Method for promoting plant growth” (SUMITOMO CHEMICAL COMPANY, LIMITED, priority 2011, dated 2016).

Key:
Format in all cases: in vivo
[1] = tested on: Corn (cultivar: Kuromochi); assay: Test Example 5: reduction of low-temperature stress by treatment of corn seeds; conditions: 2.5±1° C. for 4 days, then 4 days at 27° C.
Description: Corn (cultivar: Kuromochi) A blank slurry solution containing 10% (V/V) color coat red (Becker Underwood, Inc.), 10% (V/V) CF-Clear (Becker Underwood, Inc.) and 1.66% Maxim 4FS (Syngenta) was prepared. A slurry solution was prepared by dissolving the present compound 1 in the blank slurry solution such that 0.5 g, 5 g or 50 g of the compound is applied to each 100 kg of corn seeds. In a 50-ml centrifuge tube (manufactured by BD Japan), 0.35 ml of the slurry solution was placed for each 14.4 g of corn seeds and stirred until the solution was dried, thereby coating the seeds. In addition, seeds were coated with the blank slurry solution and used as seeds for a non-treated group. One of the treated corn seeds was sown in culture soil (AISAI) in each pot (55 mm in diameter×58 mm in height) and cultivated for 10 days under the conditions of a temperature of 27° C., an illuminance of 5,000 lux, and a day length of 16 hours. The grown seedlings were used for the test. The pots at 10 days after the sowing were placed into an artificial weather control room (VHT-2-[…]-NC2-S, manufactured by Nippon Medical & Chemical Instruments Co., Ltd) and cultivated for 4 days under the following conditions: -temperature: 2.5±1° C., day length: 16 hours, and illuminance: 5,000 lux. After the low-temperature stress treatment, the plants were cultivated for 4 days under the conditions of a temperature of 27° C., an illuminance of 5,000 lux, and a day length of 16 hours. Then, the fresh weight of the overground part of the plants was measured. The experiment was performed in four replications for each treatment condition and the average weight per individual was calculated. As a result, the fresh weight of the overground part of plants in the treated group of applying 0.5 g, 5 g or 50 g of the present compound 1 to each 100 kg of seeds was much heavier than that in the non-treated group.

[2] = tested on: Rice (cultivar: Nipponbare); assay: Test Example 7: reduction of drought stress by treatment of rice seeds; conditions: drought 2 days, then 14 days hydroponics
Description: Rice (cultivar: Nipponbare) A blank slurry solution containing 5% (V/V) color coat red (Becker Underwood, Inc.), 5% (V/V) CF-Clear (Becker Underwood, Inc.) and 1% Maxim XL (Syngenta) was prepared. A slurry solution was prepared by dissolving the present compound 1 in the blank slurry solution such that 50 g or 100 g of the compound is applied to each 100 kg of rice seeds. In a 50-ml centrifuge tube (manufactured by AGC TECHNO GLASS CO., LTD.), 0.3 ml of the slurry solution was placed for each 10 g of rice seeds and stirred until the solution was dried, thereby coating the seeds. In addition, seeds were coated with the blank slurry solution and used as seeds for a non-treated group. A filter paper was placed on the holes of a plug tray having 406 holes, and the rice seeds treated above were sown on the filter paper. […] Fourteen (14) days after the treatment, the fresh weight of the overground parts of five test plants in each treated group was measured. The experiment was performed in three replications in each treated group and the average value was calculated. […]

[3] = tested on: Rice (cultivar: Nipponbare); assay: Test Example 1: promotion of root growth in hydroponics of rice; conditions: 1 ppm in hydroponic solution; 3 days germination + 3 days cultivation
Description: Rice (cultivar: Nipponbare)
DMSO solutions containing each of the present compounds 1 to 3 at 10,000 ppm were prepared. A 1/10,000 volume of each DMSO solution containing each of the present compounds 1 to 3 at 10,000 ppm was added to a Hoagland solution for hydroponics at ¼ concentration (Hoagland and Arnon, California Agricultural Experiment Station 1950 Circular 347 pp. 34) to obtain a solution for hydroponics containing each of the present compounds 1 to 3 at 1 ppm. These solutions were used in the treated-group.
In a non-treated group, a solution for hydroponics obtained by adding a Hoagland solution for hydroponics at ¼ concentration to a 1/10,000 volume of DMSO was used.
The rice seeds were immersed in an aqueous solution of 1% sodium hypochlorite for 10 minutes, followed by 70% ethanol solution to sterilize their surfaces. After that, the seeds were washed with distilled water. The sterilized seeds were immersed in each solution for hydroponics containing the test compound at the given concentration, and incubated at a temperature of 28° C. for 3 days under dark conditions to stimulate the germination of the seeds.
Then, 30 ml of each solution for hydroponics containing the test compound at the given concentration was dispensed into a plastic tube (20 mm in diameter×113 mm in height) covered with a cardboard on the lateral surface for blocking a light. A float made of a styrene board and a vinyl mesh was placed on the water surface of each solution for hydroponics, and the rice seeds obtained after the stimulation of germination were placed on the float. The seeds were cultivated for 3 days under the conditions of an illuminance of 4,000 lux at the top of the tube, a temperature of 26° C., a humidity of 50%, and a day length of 16 hours.
The root length of the rice seedlings obtained after the cultivation was measured by using WinRHIZO system (manufactured by REGENT INSTRUMENTS). The average value of the root length in the treated group was calculated from the measurement values of 4 or 5 individuals. […]

[4] = seed treatment 50 g per 100 kg of seeds

Compound: O=C(O)c1cc2cc(C(F)(F)F)ccc2s1 [The present compound 1, 5-(trifluoromethyl)benzo[b]thiophene-2-carboxylic acid]
- fresh weight of the overground part of plants vs non-treated group ([1]; seed treatment 0.5 g per 100 kg of seeds): much heavier
- fresh weight of the overground part of plants vs non-treated group ([1]; seed treatment 5 g per 100 kg of seeds): much heavier
- fresh weight of the overground part of plants vs non-treated group [1, 4]: much heavier
- fresh weight of the overground part of plants vs non-treated group [2, 4]: much heavier
- fresh weight of the overground part of plants vs non-treated group ([2]; seed treatment 100 g per 100 kg of seeds): much heavier
- root length of the rice seedlings vs non-treated group [3]: much longer
